Assay results reported in patent US8012975B2, “Antitumoral analogs of ET-743” (Pharma Mar, S.A., priority 2000, dated 2011).
pIC50: −log10 of the molar value. Like-named read-outs stand apart in the source and are kept apart here.

Key:
[1] = tested on: P-388; experiment: Cytotoxic activity IC50, P-388; conditions: Mus musculus, P388, read-out: CYTOTOXIC ACTIVITIY IC50 (μM) P-388
[2] = tested on: A-549; experiment: Cytotoxic activity IC50, A-549; conditions: Homo sapiens
[3] = tested on: HT-29; experiment: Cytotoxic activity IC50, HT-29; conditions: Homo sapiens
[4] = tested on: MEL-28; experiment: Cytotoxic activity IC50, MEL-28; conditions: Homo sapiens
[5] = tested on: DU-145; experiment: Cytotoxic activity IC50, DU-145; conditions: Homo sapiens
[6] = tested on: HT-29
[7] = A549, read-out: CYTOTOXIC ACTIVITIY IC50 (μM) A-549, A-549
[8] = HT-29, read-out: CYTOTOXIC ACTIVITIY IC50 (μM) HT-29, HT-29
[9] = SK-MEL-28, read-out: CYTOTOXIC ACTIVITIY IC50 (μM) MEL-28, MEL-28
[10] = DU-145, read-out: CYTOTOXIC ACTIVITIY IC50 (μM) DU-145, DU-145

Structure (SMILES)	IC50 [1] [µM]	IC50 [2, 7] [µM]	IC50 [3, 8] [µM]	IC50 [4, 9] [µM]	IC50 [5, 10] [µM]	pIC50 [6]	IC50 ([2]; A549, read-out: CYTOTOXIC ACTIVITIY IC50 (μM) A-549) [µM]	IC50 ([3]; HT-29, read-out: CYTOTOXIC ACTIVITIY IC50 (μM) HT-29) [µM]	IC50 ([4]; SK-MEL-28, read-out: CYTOTOXIC ACTIVITIY IC50 (μM) MEL-28) [µM]	IC50 ([5]; DU-145, read-out: CYTOTOXIC ACTIVITIY IC50 (μM) DU-145) [µM]
C=CCOC(=O)Oc1c(C)c2c(c3c1CC1[C@H]4c5c(cc(C)c(OC)c5O)C[C@@H]([C@H](C#N)N1[C@H]3CNC(=O)[C@H](C)N)N4C)OCO2 (stereo partly drawn)	0.001	0.001	0.001	0.001	0.001					
COc1c(C)cc2c(c1O)[C@@H]1C3Cc4c(OC(C)=O)c(C)c5c(c4[C@H](CNC(=O)Cc4ccccc4)N3[C@@H](O)[C@H](C2)N1C)OCO5 (stereo partly drawn) [drawing 124]	0.0007	0.0007	0.0007	0.0007	0.0007					
COc1c(C)cc2c(c1O)[C@@H]1C3Cc4c(OC(=O)C(F)(F)F)c(C)c5c(c4[C@H](CNC(=O)CCc4ccccc4)N3[C@@H](C#N)[C@H](C2)N1C)OCO5 (stereo partly drawn)	0.01	0.01	0.01	0.01	0.01					
CCCC(=O)N[C@@H](C)C(=O)NC[C@H]1c2c(c(OC(C)=O)c(C)c3c2OCO3)CC2[C@H]3c4c(cc(C)c(OC)c4O)C[C@@H]([C@H](O)N21)N3C (stereo partly drawn)	0.001	0.001	0.001	0.001	0.001					
COc1c(C)cc2c(c1O)[C@@H]1C3Cc4c(OC(C)=O)c(C)c5c(c4[C@H](CNC(=O)[C@H](C)NC(=O)/C=C/c4ccccc4)N3[C@@H](C#N)[C@H](C2)N1C)OCO5 (stereo partly drawn)						10.00				
C=CCOc1c(C)c2c(c3c1CC1[C@H]4c5c(cc(C)c(OC)c5OCOC)C[C@@H]([C@H](C#N)N1[C@H]3COC(=O)CCC)N4C)OCO2 (stereo partly drawn)	> 1	> 1	> 1	> 1	> 1					
COCOc1c(OC)c(C)cc2c1[C@@H]1C3Cc4c(OC(C)=O)c(C)c5c(c4[C@H](COC(=O)CCc4ccccc4)N3[C@@H](C#N)[C@H](C2)N1C)OCO5 (stereo partly drawn)	0.1	0.1	0.1	0.1	0.1					
CCCCC(=O)NC[C@H]1c2c(c(OC(C)=O)c(C)c3c2OCO3)CC2[C@H]3c4c(cc(C)c(OC)c4O)C[C@@H]([C@H](C#N)N21)N3C (stereo partly drawn)	0.007	0.007	0.007	0.007	0.007					
C/C=C/C(=O)N[C@@H](C)C(=O)NC[C@H]1c2c(c(OC(C)=O)c(C)c3c2OCO3)CC2[C@H]3c4c(cc(C)c(OC)c4O)C[C@@H]([C@H](C#N)N21)N3C (stereo partly drawn)	0.001	0.007	0.001	0.001	0.007					
COCOc1c(OC)c(C)cc2c1[C@@H]1C3Cc4c(O)c(C)c5c(c4[C@H](CNC(=O)CCc4ccccc4)N3[C@@H](C#N)[C@H](C2)N1C)OCO5 (stereo partly drawn)	0.1	0.1	0.1	0.1	0.1					
COc1c(C)cc2c(c1O)[C@@H]1C3Cc4c(OC(C)=O)c(C)c5c(c4[C@H](COC(=O)/C=C/c4cccc(C(F)(F)F)c4)N3[C@@H](C#N)[C@H](C2)N1C)OCO5 (stereo partly drawn)	0.001	0.001	0.001	0.001	0.001					
COc1c(C)cc2c(c1O)[C@@H]1C3Cc4c(OC(C)=O)c(C)c5c(c4[C@H](CNC(=O)[C@@H](C)NC(=O)CC(C)C)N3[C@@H](O)[C@H](C2)N1C)OCO5 (stereo partly drawn)	0.001	0.001	0.001	0.001	0.001					
COCOc1c(OC)c(C)cc2c1[C@@H]1C3Cc4c(O)c(C)c5c(c4[C@H](COC(=O)/C=C/c4cccc(C(F)(F)F)c4)N3[C@@H](C#N)[C@H](C2)N1C)OCO5 (stereo partly drawn)	0.1	0.1	0.1	0.1	0.1					
COC1=C(C)C(=O)C2=C(C1=O)[C@H](CNC(=O)[C@H](C)NC(C)=O)N1C(C2)[C@H]2c3c(cc(C)c(OC)c3O)C[C@@H]([C@@H]1C#N)N2C (stereo partly drawn)	0.08	0.08	0.08	0.08	0.08					
C=CCOC(=O)Oc1c(C)c2c(c3c1CC1[C@H]4c5c(cc(C)c(OC)c5O)C[C@@H]([C@H](C#N)N1[C@H]3CN)N4C)OCO2 (stereo partly drawn)	0.06	0.06	0.06	0.06	0.06					
C/C=C/C(=O)N[C@@H](C)C(=O)NC[C@H]1c2c(c(OC(C)=O)c(C)c3c2OCO3)CC2[C@H]3c4c(cc(C)c(OC)c4O)C[C@@H]([C@H](O)N21)N3C (stereo partly drawn)	0.001	0.007	0.001	0.001	0.007					

Structure (SMILES)	IC50 [1] [µM]	IC50 [2, 7] [µM]	IC50 [3, 8] [µM]	IC50 [4, 9] [µM]	IC50 [5, 10] [µM]	pIC50 [6]	IC50 ([2]; A549, read-out: CYTOTOXIC ACTIVITIY IC50 (μM) A-549) [µM]	IC50 ([3]; HT-29, read-out: CYTOTOXIC ACTIVITIY IC50 (μM) HT-29) [µM]	IC50 ([4]; SK-MEL-28, read-out: CYTOTOXIC ACTIVITIY IC50 (μM) MEL-28) [µM]	IC50 ([5]; DU-145, read-out: CYTOTOXIC ACTIVITIY IC50 (μM) DU-145) [µM]
COCOc1c(OC)c(C)cc2c1[C@@H]1C3Cc4c(OC(=O)CCl)c(C)c5c(c4[C@H](CNC(=O)CCc4ccccc4)N3[C@@H](C#N)[C@H](C2)N1C)OCO5 (stereo partly drawn)	0.1	0.1	0.1	0.1	0.1					
COc1c(C)cc2c(c1O)[C@@H]1C3Cc4c(OC(C)=O)c(C)c5c(c4[C@H](CNC(=O)[C@H](C)NC(=O)[C@@H](NC(=O)OCc4ccccc4)C(C)C)N3[C@@H](C#N)[C@H](C2)N1C)OCO5 (stereo partly drawn)	0.01	0.01	0.01	0.01	0.01					
COc1c(C)cc2c(c1O)[C@@H]1C3Cc4c(OC(C)=O)c(C)c5c(c4[C@H](CNC(=O)[C@@H](NC(=O)OCc4ccccc4)C(C)C)N3[C@@H](C#N)[C@H](C2)N1C)OCO5 (stereo partly drawn)	0.001	0.001	0.001	0.001	0.001					
COCOc1c(OC)c(C)cc2c1[C@@H]1C3Cc4c(OC(C)=O)c(C)c5c(c4[C@H](COC(=O)/C=C/c4cccc(C(F)(F)F)c4)N3[C@@H](C#N)[C@H](C2)N1C)OCO5 (stereo partly drawn)	0.6	0.6	0.6	0.6	0.6					
C=CCOC(=O)Oc1c(C)c2c(c3c1CC1[C@H]4c5c(cc(C)c(OC)c5OCOC)C[C@@H]([C@H](C#N)N1[C@H]3CNC(=O)OCC(Cl)(Cl)Cl)N4C)OCO2 (stereo partly drawn)	0.1	0.1	0.1	0.1	0.1					
C=CCOC(=O)Oc1c(C)c2c(c3c1CC1[C@H]4c5c(cc(C)c(OC)c5OCOC)C[C@@H]([C@H](O)N1[C@H]3CNC(=O)CCc1ccccc1)N4C)OCO2 (stereo partly drawn)	0.1	0.1	0.1	0.1	0.1					
COc1c(C)cc2c(c1O)[C@@H]1C3Cc4c(OC(C)=O)c(C)c5c(c4[C@H](CNC(=O)[C@H](C)NC(=O)Cc4ccccc4)N3[C@@H](O)[C@H](C2)N1C)OCO5 (stereo partly drawn) [drawing 137]	0.0007	0.0007	0.0007	0.0007	0.0007					
COc1c(C)cc2c(c1O)[C@@H]1C3Cc4c(O)c(C)c5c(c4[C@H](CNC(=O)/C=C/c4ccccc4)N3[C@@H](C#N)[C@H](C2)N1C)OCO5 (stereo partly drawn)	0.001	0.001	0.001	0.001	0.001					
C=CCOc1c(C)c2c(c3c1CC1[C@H]4c5c(cc(C)c(OC)c5OCOC)C[C@@H]([C@H](C#N)N1[C@H]3CO)N4C)OCO2 (stereo partly drawn)	0.2	0.2	0.2	0.2	0.2					
C=CCOC(=O)Oc1c(C)c2c(c3c1CC1[C@H]4c5c(cc(C)c(OC)c5O)C[C@@H]([C@H](C#N)N1[C@H]3CNC(=O)OCC(Cl)(Cl)Cl)N4C)OCO2 (stereo partly drawn)	0.006	0.006	0.006	0.006	0.006					
COc1c(C)cc2c(c1O)[C@@H]1C3Cc4c(OC(=O)C(F)(F)C(F)(F)C(F)(F)F)c(C)c5c(c4[C@H](CNC(=O)CCc4ccccc4)N3[C@@H](C#N)[C@H](C2)N1C)OCO5 (stereo partly drawn)	0.006						0.006	0.006	0.006	0.006
COc1c(C)cc2c(c1O)[C@@H]1C3Cc4c(OC(C)=O)c(C)c5c(c4[C@H](CNC(=O)CC(C)C)N3[C@@H](O)[C@H](C2)N1C)OCO5 (stereo partly drawn)	0.0008	0.001	0.0008	0.0008	0.001					
C=CCOC(=O)Oc1c(C)c2c(c3c1CC1[C@H]4c5c(cc(C)c(OC)c5O)C[C@@H]([C@H](C#N)N1[C@H]3CNC(=O)[C@H](C)NC(=S)Nc1ccccc1)N4C)OCO2 (stereo partly drawn)	0.001	0.001	0.001	0.001	0.001					
COCOc1c(OC)c(C)cc2c1[C@@H]1C3Cc4c(O)c(C)c5c(c4[C@H](COC(=O)CCc4ccccc4)N3[C@@H](C#N)[C@H](C2)N1C)OCO5 (stereo partly drawn)	0.1	0.1	0.1	0.1	0.1					
COCOc1c(OC)c(C)cc2c1[C@@H]1C3Cc4c(OC(=O)CCCl)c(C)c5c(c4[C@H](CNC(=O)CCc4ccccc4)N3[C@@H](C#N)[C@H](C2)N1C)OCO5 (stereo partly drawn)	0.05	0.05	0.05	0.05	0.05					
COc1c(C)cc2c(c1O)[C@@H]1C3Cc4c(OC(=O)CCl)c(C)c5c(c4[C@H](CNC(=O)CCc4ccccc4)N3[C@@H](C#N)[C@H](C2)N1C)OCO5 (stereo partly drawn)	0.001	0.001	0.001	0.001	0.001					
